From ChEMBL document CHEMBL1201862, “PubChem BioAssay data set” (2004) come the findings set out here.

Assay [1] in a line: cells. The assay is classed as functional, cell-based.
Assay [2] addresses ATP-dependent molecular chaperone HSP82 (Candida albicans (strain WO-1) (Yeast), UniProt C4YTQ8). The assay can be described thus: loss of DOC-induced GRE-beta-galactosidase reporter signal, dose response, Hsp90 inhibitor project, S. cerevisiae, luminescence (AID 2400).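 Further: beta-galactosidase luminescence from glucocorticoid response element reporter as proxy for Hsp90 function; inhibitor potency where signal loss means Hsp90 inhibition.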 It counts as functional, cell-based.
The target in assay [3] is T1, Serine/threonine-protein phosphatase (Candida dubliniensis (strain CD36 / CBS 7987 / NCPF 3949 / NRRLY-17841) (Yeast), UniProt B9W6M3).
T1 sequence (B9W6M3 whole entry): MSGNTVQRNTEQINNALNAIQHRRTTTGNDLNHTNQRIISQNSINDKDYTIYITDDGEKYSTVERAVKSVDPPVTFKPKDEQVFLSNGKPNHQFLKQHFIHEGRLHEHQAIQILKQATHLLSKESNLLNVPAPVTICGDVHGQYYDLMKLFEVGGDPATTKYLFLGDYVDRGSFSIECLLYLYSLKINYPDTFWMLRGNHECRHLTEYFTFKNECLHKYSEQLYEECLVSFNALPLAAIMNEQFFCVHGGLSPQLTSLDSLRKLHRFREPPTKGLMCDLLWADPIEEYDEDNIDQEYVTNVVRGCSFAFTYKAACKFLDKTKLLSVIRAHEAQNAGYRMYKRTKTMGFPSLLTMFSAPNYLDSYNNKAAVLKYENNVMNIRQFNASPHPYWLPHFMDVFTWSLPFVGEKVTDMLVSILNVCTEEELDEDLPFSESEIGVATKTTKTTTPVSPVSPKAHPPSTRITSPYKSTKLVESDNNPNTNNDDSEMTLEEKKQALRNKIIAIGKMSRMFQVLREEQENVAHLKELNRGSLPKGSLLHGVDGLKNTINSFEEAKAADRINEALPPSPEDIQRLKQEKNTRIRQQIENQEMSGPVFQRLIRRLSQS
Description: calcineurin pathway inhibitors in yeast reporter, dose response, S. cerevisiae, CDRE-lacZ, luminescence, secondary (AID 2388).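 Further: yeast reporter cells carrying a calcineurin-responsive lacZ construct stimulated with calcium chloride; luminescent beta-galactosidase reporter signal in whole cells rather than isolated phosphatase activity; potency for inhibition where a drop in reporter signal means calcineurin blockade.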 The assay is classed as functional, cell-based.

The nature of assay [4]: C. albicans growth with fluconazole, confirmation, fluorescence, retest (AID 2467). The assay is classed as functional, cell-based.
Assay [5] deals with Photoreceptor-specific nuclear receptor (Homo sapiens, UniProt Q9Y5X4). It counts as functional, cell-based.
Sequence of Photoreceptor-specific nuclear receptor (Q9Y5X4 whole entry): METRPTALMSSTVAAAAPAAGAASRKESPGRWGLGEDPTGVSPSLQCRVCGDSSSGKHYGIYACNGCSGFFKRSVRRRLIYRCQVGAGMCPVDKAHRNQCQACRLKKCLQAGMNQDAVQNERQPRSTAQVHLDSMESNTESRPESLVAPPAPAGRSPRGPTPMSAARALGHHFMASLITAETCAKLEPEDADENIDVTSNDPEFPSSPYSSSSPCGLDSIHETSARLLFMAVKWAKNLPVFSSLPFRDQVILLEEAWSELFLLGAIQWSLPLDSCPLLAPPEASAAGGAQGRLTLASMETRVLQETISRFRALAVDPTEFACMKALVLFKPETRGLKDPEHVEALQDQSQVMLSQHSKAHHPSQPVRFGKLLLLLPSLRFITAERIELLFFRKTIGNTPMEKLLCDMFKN
The nature of assay [6]: NIH-3T3 fibroblast cytotoxicity, dose response, cytotoxicity control, cell-based, fluorescence, Alamar Blue, secondary assay (AID 2327).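 Further: NIH-3T3 mouse fibroblasts cultured with fluconazole at 8 µg/mL.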 The assay is classed as functional. For orientation: Resazurin is reduced to fluorescent resorufin, in cell work by metabolically active cells.
The test system of a further assay is INS1. The assay can be described thus: beta cell apoptosis inhibitors, cytokine rescue, dose response, luminescence, retest (AID 449756).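 Further: cell death triggered by IL-1 beta plus TNF-alpha plus IFN-gamma mixture; protective hits raise ATP signal compared with cytokine alone wells.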 The settings on record: Rattus norvegicus. It counts as functional, cell-based.
Assay [7] in a line: cells. It counts as functional, cell-based. This is another data set of the same source.
Assay [8] addresses Beta-lactamase (Salmonella choleraesuis (strain SC-B67), UniProt Q5J463).
Assay [9] has as its target Beta-lactamase (Pseudomonas aeruginosa, UniProt Q79MP6).
The next assay concerns the target Troponin, cardiac muscle (Homo sapiens, UniProt P19429+P45379+P63316). Description: Fluorescence-based biochemical high throughput dose response assay for activators of the calcium sensitivity of cardiac Regulated Thin Filaments (RTF). [Related pubchem assays (depositor defined):AID493008, AID493018, AID504382, AID504383]. The assay is classed as protein-complex assay.

Assay [10] can be described thus: inhibitors of HIV Env-driven cell fusion, dose response, cherry-pick (AID 652057). The assay is classed as functional, cell-based.
The nature of assay [11]: Luminescence Cell-Based Dose Confirmation HTS to Identify Inhibitors of Platelet Dense Granule Release. [Related pubchem assays: 1663 (Primary HTS), 1678 (Summary of Project)]. The assay is classed as functional.
Assay [12] in a line: ZM109 Env clade C HIV-1 fusion inhibitors, dose response, HeLa effector, CEM target cells, luciferase, cherry-pick (AID 652058). The assay is classed as functional, cell-based.
The target of a further assay is Cytochrome P450 2D6 (Homo sapiens, UniProt P10635).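 Further: CYP2D6 member of a cytochrome P450 panel assay.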
Sequence of Cytochrome P450 2D6 (P10635 whole entry, the tested form may be a part): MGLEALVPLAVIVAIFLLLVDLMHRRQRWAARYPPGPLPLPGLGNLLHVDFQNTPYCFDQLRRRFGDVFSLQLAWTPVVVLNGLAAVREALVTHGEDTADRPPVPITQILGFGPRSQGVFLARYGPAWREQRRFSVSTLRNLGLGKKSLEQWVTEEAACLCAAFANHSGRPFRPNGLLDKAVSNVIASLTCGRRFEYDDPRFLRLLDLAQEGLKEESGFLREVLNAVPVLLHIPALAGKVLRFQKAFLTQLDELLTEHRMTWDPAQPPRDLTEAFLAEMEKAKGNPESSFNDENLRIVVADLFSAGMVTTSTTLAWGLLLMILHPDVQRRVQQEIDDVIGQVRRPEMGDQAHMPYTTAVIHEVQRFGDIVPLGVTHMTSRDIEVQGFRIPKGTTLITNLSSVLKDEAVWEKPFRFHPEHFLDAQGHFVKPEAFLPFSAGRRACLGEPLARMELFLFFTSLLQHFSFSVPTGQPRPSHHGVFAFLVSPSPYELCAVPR
Assay [13] in a line: inhibitors of clade B AD8 Env fusion, dose response, cell-based, cherry-pick (AID 652062).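 Further: luciferase signal from cell-cell fusion driven by HIV-1 clade B AD8 Env; potency is for inhibitors of fusion seen as a drop in luminescence.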 The assay is classed as functional.
Assay [14] can be described thus: off-target signal loss in HeLa-CEM21 co-culture – HeLa F-luc CTL cells, cherry-picked, counter-screen for HIV-1 Env fusion inhibitor project, dose response (AID 652040).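 Further: potency for signal decrease marking cytotoxic or nonspecific inhibition.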 It counts as functional, cell-based. (The purpose of a counterscreen is to sort out artefacts and off-target activity.)
In assay [15] the target is Luciferin 4-monooxygenase (Photinus pyralis, UniProt P08659). Description: firefly luciferase enzyme inhibitors, dose response, biochemical, luminescence (AID 1891).
Sequence of Luciferin 4-monooxygenase (P08659 whole entry): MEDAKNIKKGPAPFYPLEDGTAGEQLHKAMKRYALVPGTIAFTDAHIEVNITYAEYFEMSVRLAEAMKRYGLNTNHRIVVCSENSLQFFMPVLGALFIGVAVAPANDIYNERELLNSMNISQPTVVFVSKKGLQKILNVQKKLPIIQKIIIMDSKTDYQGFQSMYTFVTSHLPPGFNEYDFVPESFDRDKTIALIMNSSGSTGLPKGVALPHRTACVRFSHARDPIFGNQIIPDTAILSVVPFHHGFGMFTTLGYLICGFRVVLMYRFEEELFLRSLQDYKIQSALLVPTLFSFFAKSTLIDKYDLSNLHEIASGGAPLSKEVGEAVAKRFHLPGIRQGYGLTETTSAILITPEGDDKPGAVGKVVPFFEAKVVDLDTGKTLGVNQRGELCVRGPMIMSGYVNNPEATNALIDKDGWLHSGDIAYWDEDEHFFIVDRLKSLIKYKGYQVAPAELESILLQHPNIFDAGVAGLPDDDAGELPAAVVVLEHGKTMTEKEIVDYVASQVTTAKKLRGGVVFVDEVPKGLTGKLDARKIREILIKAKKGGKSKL
For assay [16], the target named is T2, Scavenger receptor class B member 1 (Mus musculus, UniProt Q61009).
T2 sequence (Q61009 whole entry): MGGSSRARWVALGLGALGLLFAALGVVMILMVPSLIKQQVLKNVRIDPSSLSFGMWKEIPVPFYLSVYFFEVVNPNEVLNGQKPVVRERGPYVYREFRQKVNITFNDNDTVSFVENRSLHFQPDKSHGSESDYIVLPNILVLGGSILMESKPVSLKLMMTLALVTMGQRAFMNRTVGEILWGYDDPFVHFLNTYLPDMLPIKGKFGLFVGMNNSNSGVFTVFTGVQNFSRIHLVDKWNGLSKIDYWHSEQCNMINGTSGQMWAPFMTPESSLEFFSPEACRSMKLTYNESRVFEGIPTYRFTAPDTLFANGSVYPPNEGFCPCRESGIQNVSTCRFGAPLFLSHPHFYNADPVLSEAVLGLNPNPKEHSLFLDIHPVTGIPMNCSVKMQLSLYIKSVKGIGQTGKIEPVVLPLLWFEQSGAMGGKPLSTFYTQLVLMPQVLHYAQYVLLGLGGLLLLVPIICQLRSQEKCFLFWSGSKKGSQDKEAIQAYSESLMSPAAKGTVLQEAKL
Description: inhibitors of SR-BI-mediated HDL uptake, dose response, cell-based, ldlA[mSR-BI] CHO, DiI fluorescence, dry powder, set 10 (AID 624029). The assay is classed as functional.

The test system of assay [17] is HEK293. The assay can be described thus: cells. The settings on record: Homo sapiens.
Assay [18] relates to HEK293. The assay can be described thus: cells. The settings on record: Homo sapiens. The source holds these as a separate data set.
The target of assay [19] is DNA repair protein RAD52 homolog (Homo sapiens, UniProt P43351). It counts as functional, biochemical.
Sequence of DNA repair protein RAD52 homolog (P43351 whole entry): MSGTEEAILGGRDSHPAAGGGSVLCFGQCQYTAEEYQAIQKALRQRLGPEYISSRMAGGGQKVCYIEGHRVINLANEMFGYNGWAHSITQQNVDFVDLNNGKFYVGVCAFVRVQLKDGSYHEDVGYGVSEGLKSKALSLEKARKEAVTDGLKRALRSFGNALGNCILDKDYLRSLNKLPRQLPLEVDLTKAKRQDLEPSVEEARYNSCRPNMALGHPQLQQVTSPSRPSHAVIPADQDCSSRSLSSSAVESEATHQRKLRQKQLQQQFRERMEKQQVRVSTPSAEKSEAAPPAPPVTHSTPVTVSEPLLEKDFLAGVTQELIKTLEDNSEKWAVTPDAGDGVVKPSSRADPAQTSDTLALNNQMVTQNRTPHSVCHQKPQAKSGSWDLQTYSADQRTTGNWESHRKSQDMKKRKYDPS
Assay [20] addresses T3, DNA repair and recombination protein RAD54-like (Homo sapiens, UniProt Q92698).
T3 sequence (Q92698 whole entry): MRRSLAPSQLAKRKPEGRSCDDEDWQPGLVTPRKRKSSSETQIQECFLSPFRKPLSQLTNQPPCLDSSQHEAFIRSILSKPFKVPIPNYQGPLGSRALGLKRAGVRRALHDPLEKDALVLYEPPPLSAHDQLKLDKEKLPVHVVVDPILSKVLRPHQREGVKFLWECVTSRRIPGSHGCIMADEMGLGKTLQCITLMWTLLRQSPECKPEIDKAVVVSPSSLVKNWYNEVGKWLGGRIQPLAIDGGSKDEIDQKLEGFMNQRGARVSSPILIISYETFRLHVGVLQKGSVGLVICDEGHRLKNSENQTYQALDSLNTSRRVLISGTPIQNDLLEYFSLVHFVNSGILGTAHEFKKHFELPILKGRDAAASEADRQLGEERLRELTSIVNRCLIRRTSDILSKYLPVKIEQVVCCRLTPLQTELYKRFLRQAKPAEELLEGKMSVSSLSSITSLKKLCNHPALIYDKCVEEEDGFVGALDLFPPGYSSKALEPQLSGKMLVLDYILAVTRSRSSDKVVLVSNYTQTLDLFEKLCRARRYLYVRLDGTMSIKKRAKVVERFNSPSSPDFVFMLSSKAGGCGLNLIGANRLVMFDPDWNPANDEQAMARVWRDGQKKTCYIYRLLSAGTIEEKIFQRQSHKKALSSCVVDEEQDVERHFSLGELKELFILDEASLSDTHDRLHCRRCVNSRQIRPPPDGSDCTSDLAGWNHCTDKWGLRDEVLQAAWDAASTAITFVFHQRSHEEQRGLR
Description: inhibitors of human RAD54 branch migration, confirmation, biochemical, fluorescence, cherry-picked samples, dose series (AID 651657). It counts as functional.

The next assay relates to Vero. The assay can be described thus: Vero cell toxicity, dose response, cytotoxicity control, plate reader, cherry-pick samples (AID 687020). The assay is classed as functional, cell-based. Conditions: Chlorocebus sabaeus.
The nature of assay [21]: inhibitors of intracellular T. cruzi replication, confirmation, NIH3T3 host cells, beta-gal luminescence (AID 2044).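 Further: intracellular parasites grown in NIH/3T3 mouse fibroblasts as host cells; luminescent beta-galactosidase reporter signal from transgenic T. cruzi replicating inside host cells; inhibitors lower the luminescence signal.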 It counts as functional, cell-based.
A short description of assay [22]: cytotoxicity toward NIH3T3 fibroblasts, dose response, counter-screen, cell-based, ATP luminescence, mouse fibroblasts (AID 2010).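 Further: cells exposed to compound for about 90 hours before reading.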 It counts as functional.

Molecules are shown by their SMILES. Activity calls are given as the source filed them.

Sequence of Beta-lactamase (Salmonella choleraesuis (strain SC-B67), UniProt Q5J463) (Q5J463 whole entry): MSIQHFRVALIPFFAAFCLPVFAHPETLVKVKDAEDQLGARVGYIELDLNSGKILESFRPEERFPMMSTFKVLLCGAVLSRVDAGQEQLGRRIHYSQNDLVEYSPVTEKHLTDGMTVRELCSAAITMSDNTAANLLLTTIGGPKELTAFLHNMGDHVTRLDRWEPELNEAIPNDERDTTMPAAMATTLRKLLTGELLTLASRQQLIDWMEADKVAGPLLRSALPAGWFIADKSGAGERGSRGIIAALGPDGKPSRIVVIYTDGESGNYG
Sequence of Beta-lactamase (Pseudomonas aeruginosa, UniProt Q79MP6) (Q79MP6 whole entry): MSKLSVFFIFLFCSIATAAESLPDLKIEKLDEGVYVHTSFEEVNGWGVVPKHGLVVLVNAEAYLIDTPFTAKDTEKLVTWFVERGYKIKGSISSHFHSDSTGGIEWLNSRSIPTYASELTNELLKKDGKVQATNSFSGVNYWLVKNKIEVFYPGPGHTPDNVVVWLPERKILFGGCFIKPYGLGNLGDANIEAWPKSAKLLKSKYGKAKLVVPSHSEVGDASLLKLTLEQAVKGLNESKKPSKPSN
Sequence of ATP-dependent molecular chaperone HSP82 (C4YTQ8 whole entry): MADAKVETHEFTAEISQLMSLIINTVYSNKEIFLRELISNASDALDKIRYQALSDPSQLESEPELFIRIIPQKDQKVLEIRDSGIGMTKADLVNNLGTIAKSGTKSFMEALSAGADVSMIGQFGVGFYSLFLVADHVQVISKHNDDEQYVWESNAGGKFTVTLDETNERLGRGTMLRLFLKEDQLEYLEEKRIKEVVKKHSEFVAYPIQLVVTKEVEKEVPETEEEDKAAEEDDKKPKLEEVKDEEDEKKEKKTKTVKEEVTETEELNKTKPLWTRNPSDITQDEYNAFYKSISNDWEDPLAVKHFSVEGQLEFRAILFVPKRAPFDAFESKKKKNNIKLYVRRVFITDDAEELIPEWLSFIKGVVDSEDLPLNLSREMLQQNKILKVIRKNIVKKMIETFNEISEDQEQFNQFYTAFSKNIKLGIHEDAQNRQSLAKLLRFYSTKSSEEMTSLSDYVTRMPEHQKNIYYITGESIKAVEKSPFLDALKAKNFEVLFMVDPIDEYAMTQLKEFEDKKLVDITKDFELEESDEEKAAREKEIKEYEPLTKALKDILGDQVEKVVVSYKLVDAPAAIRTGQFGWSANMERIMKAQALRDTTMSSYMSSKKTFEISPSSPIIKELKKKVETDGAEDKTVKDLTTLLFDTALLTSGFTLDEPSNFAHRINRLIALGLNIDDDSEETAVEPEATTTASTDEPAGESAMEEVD

Usually EC50 stands for the concentration giving half of the maximal effect. The term IC50 denotes the concentration needed to halve the response being measured. The AC50 is the midpoint of the concentration-response curve, whichever way the signal moves. In the case of `CC(=O)NC(c1cccs1)c1cc([N+](=O)[O-])c2cccnc2c1O` (stereo unspecified), the EC50 in the assay “cells [1]” was 51.5 µM (active); in assay [2], > 150 µM (inactive); in assay [3], > 180 µM (inactive); in assay [4], 0.757 µM (active); in assay [6] it was 46.7 µM (inconclusive); in the assay “cells [7]”, > 350 µM (not active). The IC50 in assay [5] is 4.71 µM (active). In the assay with INS1, the AC50 is 4.94 µM (active).
On to `COc1ccc(/C=C2/SC(c3ccc(C)cc3)=NC2=O)cc1OC`, for which the IC50 on Beta-lactamase [8] and on Beta-lactamase [9] was > 59.6 µM (inactive) throughout. Besides, the EC50 on Troponin, cardiac muscle was 0.742 µM (active).
In the case of `Cc1ccc(N2C(=O)CC(c3ccsc3)C3=C2CC(C)(C)CC3=O)cc1` (stereo unspecified), the AC50 in assay [10] is 3.24 µM (active); in [12] it was 3.55 µM (active); on Cytochrome P450 2D6, 39.8 µM (inconclusive); in assay [13] it was 18.9 µM (active); in assay [14], 5.07 µM (active). The EC50 in [11] and in [15] was > 112 µM (not active) each time.
For `CC(C)NC(=O)Nc1ccc2c(c1)C(=O)N([C@H](C)CO)C[C@H](C)[C@H](CN(C)S(=O)(=O)c1ccc(Cl)cc1)O2`, the AC50 in assay [16] is 57.4 µM (active).
On to `COc1ccc(NC(=O)C2CCCN2S(=O)(=O)c2ccc3c(c2)CCC(=O)N3)cc1Cl` (stereo unspecified), for which the AC50 was 7.43 µM (active) in assay [10], 3.18 µM (active) in [12], 17.3 µM (active) in assay [13] and 14.8 µM (active) in assay [14]. Also, the EC50 in the assay on HEK293 [17] and with HEK293 [18] was > 59.6 µM (inactive) in each case.
Turning to `CN(C)CCCNc1nc2cc(-c3ccc(F)cc3)sc2c(=O)n1C`, the results for the AC50 in [19] and in assay [20] were 7.84 µM (active) and 33.8 µM (active), respectively.
On to `CC(C)C[C@@H](COc1ccccc1)N1CCN(Cc2ccccc2)CCC1=O`, for which, in the assay with Vero, the AC50 was 33.5 µM (active).
Turning to `COc1ccc2ccccc2c1-c1sc(Nc2ccccc2)n[n+]1-c1ccc(F)cc1`, the AC50 with Vero is 31.6 µM (active). Besides, the EC50 is 0.707 µM (active) in [21] and > 30 µM (not active) in assay [22].
